{
  "source": "BindingDB's records for doi:10.1021/jm00072a019",
  "about": "(J. Uriach & Cía., 1993)",
  "data": [
    {"test": "Inhibition of PAF-induced platelet aggregation", "units": {"IC50": "µM"}, "values": [
      {"compound": "Cc1ncccc1C(C#N)N1CCN(C(=O)[C@H](CO)NC(c2ccccc2)c2ccccc2)CC1", "note": "(stereo not given in full) [{4-[2-(Benzhydryl-amino)-3-hydroxy-propionyl]-piperazin-1-yl}-(2-methyl-pyridin-3-yl)-acetonitrile]", "IC50": 0.034},
      {"compound": "Cc1ncccc1C(C#N)N1CCN(C(=O)CSC(c2ccccc2)c2ccccc2)CC1", "note": "(stereo not given) [[4-(2-Benzhydrylsulfanyl-acetyl)-piperazin-1-yl]-(2-methyl-pyridin-3-yl)-acetonitrile]", "IC50": 0.079},
      {"compound": "Cc1ncccc1C(C#N)N1CCN(C(=O)CNC(C)(c2ccccc2)c2ccccc2)CC1", "note": "(stereo not given) [{4-[2-(1,1-Diphenyl-ethylamino)-acetyl]-piperazin-1-yl}-(2-methyl-pyridin-3-yl)-acetonitrile]", "IC50": 0.086},
      {"compound": "C=CCNC(CC(=O)N1CCN(C(C#N)c2cccnc2C)CC1)c1ccccc1", "note": "(stereo not given) [[4-(3-Allylamino-3-phenyl-propionyl)-piperazin-1-yl]-(2-methyl-pyridin-3-yl)-acetonitrile]", "IC50": 0.018},
      {"compound": "COC(=O)NC(CC(=O)N1CCN(C(C#N)c2cccnc2C)CC1)c1ccccc1", "note": "(stereo not given) [(3-{4-[Cyano-(2-methyl-pyridin-3-yl)-methyl]-piperazin-1-yl}-3-oxo-1-phenyl-propyl)-carbamic acid methyl ester]", "IC50": 0.041},
      {"compound": "Cc1ncccc1C(C#N)N1CCN(C(=O)CC(N)c2ccccc2)CC1", "note": "(stereo not given) [[4-(3-Amino-3-phenyl-propionyl)-piperazin-1-yl]-(2-methyl-pyridin-3-yl)-acetonitrile]", "IC50": 0.74},
      {"compound": "Cc1ncccc1C(C#N)N1CCN(C(=O)C=C(c2ccccc2)c2ccccc2)CC1", "note": "(stereo not given) [[4-(3,3-Diphenyl-acryloyl)-piperazin-1-yl]-(2-methyl-pyridin-3-yl)-acetonitrile]", "IC50": 0.026},
      {"compound": "Cc1ncccc1C(C#N)N1CCN(C(=O)CC(c2ccccc2)N2CCOC2=O)CC1", "note": "(stereo not given) [(2-Methyl-pyridin-3-yl)-{4-[3-(2-oxo-oxazolidin-3-yl)-3-phenyl-propionyl]-piperazin-1-yl}-acetonitrile]", "IC50": 0.063},
      {"compound": "CCc1ncccc1C(C#N)N1CCN(C(=O)CNC(c2ccccc2)c2ccccc2)CC1", "note": "(stereo not given) [{4-[2-(Benzhydryl-amino)-acetyl]-piperazin-1-yl}-(2-ethyl-pyridin-3-yl)-acetonitrile]", "IC50": 0.038},
      {"compound": "Cc1ncccc1C(C#N)N1CCN(C(=O)CC(O)(c2ccccc2)c2ccccc2)CC1", "note": "(stereo not given) [[4-(3-Hydroxy-3,3-diphenyl-propionyl)-piperazin-1-yl]-(2-methyl-pyridin-3-yl)-acetonitrile]", "IC50": 0.017},
      {"compound": "Cc1ncccc1C(C#N)N1CCN(C(=O)CCC(c2ccccc2)c2ccccc2)CC1", "note": "(stereo not given) [[4-(4,4-Diphenyl-butyryl)-piperazin-1-yl]-(2-methyl-pyridin-3-yl)-acetonitrile]", "IC50": 0.08},
      {"compound": "Cc1ncccc1C(C#N)N1CCN(C(=O)CC(NCc2ccccc2)c2ccccc2)CC1", "note": "(stereo not given) [[4-(3-Benzylamino-3-phenyl-propionyl)-piperazin-1-yl]-(2-methyl-pyridin-3-yl)-acetonitrile]", "IC50": 0.0091},
      {"compound": "COC(=O)NC(CC(=O)N1CCN(C(C#N)c2cccnc2C)CC1)c1ccc(C(F)(F)F)cc1", "note": "(stereo not given) [[3-{4-[Cyano-(2-methyl-pyridin-3-yl)-methyl]-piperazin-1-yl}-3-oxo-1-(4-trifluoromethyl-phenyl)-propyl]-carbamic acid methyl ester]", "IC50": 0.012},
      {"compound": "CNC(=O)C(CC(=O)N1CCN(C(C#N)c2cccnc2C)CC1)c1ccccc1", "note": "(stereo not given) [4-{4-[Cyano-(2-methyl-pyridin-3-yl)-methyl]-piperazin-1-yl}-N-methyl-4-oxo-2-phenyl-butyramide]", "IC50": 15.2},
      {"compound": "Cc1ncccc1C(C#N)N1CCN(C(=O)CC(NC(=O)c2ccccc2)c2ccccc2)CC1", "note": "(stereo not given) [N-(3-{4-[Cyano-(2-methyl-pyridin-3-yl)-methyl]-piperazin-1-yl}-3-oxo-1-phenyl-propyl)-benzamide]", "IC50": 0.0091},
      {"compound": "Cc1ncccc1C(C#N)N1CCN(C(=O)C(C)(C)C(F)(c2ccccc2)c2ccccc2)CC1", "note": "(stereo not given) [[4-(3-Fluoro-2,2-dimethyl-3,3-diphenyl-propionyl)-piperazin-1-yl]-(2-methyl-pyridin-3-yl)-acetonitrile]", "IC50": 0.026},
      {"compound": "Cc1ncccc1C(C#N)N1CCN(C(=O)CC(c2ccccc2)N(C)Cc2ccccc2)CC1", "note": "(stereo not given) [{4-[3-(Benzyl-methyl-amino)-3-phenyl-propionyl]-piperazin-1-yl}-(2-methyl-pyridin-3-yl)-acetonitrile]", "IC50": 0.02},
      {"compound": "Cc1ncccc1C(C#N)N1CCN(C(=O)CC(NC(=O)OC(C)(C)C)c2ccccc2)CC1", "note": "(stereo not given) [(3-{4-[Cyano-(2-methyl-pyridin-3-yl)-methyl]-piperazin-1-yl}-3-oxo-1-phenyl-propyl)-carbamic acid tert-butyl ester]", "IC50": 0.056},
      {"compound": "C#CCNC(CC(=O)N1CCN(C(C#N)c2cccnc2C)CC1)c1ccccc1", "note": "(stereo not given) [(2-Methyl-pyridin-3-yl)-[4-(3-phenyl-3-prop-2-ynylamino-propionyl)-piperazin-1-yl]-acetonitrile]", "IC50": 0.27},
      {"compound": "Cc1ncccc1C(C#N)N1CCN(C(=O)CC(Nc2ccccc2)c2ccccc2)CC1", "note": "(stereo not given) [(2-Methyl-pyridin-3-yl)-[4-(3-phenyl-3-phenylamino-propionyl)-piperazin-1-yl]-acetonitrile]", "IC50": 0.028},
      {"compound": "Cc1ncccc1C(C#N)N1CCN(C(=O)CNC2c3ccccc3-c3ccccc32)CC1", "note": "(stereo not given) [{4-[2-(9H-Fluoren-9-ylamino)-acetyl]-piperazin-1-yl}-(2-methyl-pyridin-3-yl)-acetonitrile]", "IC50": 0.05},
      {"compound": "Cc1ncccc1C(C#N)N1CCN(C(=O)CC(NC(=O)Oc2ccccc2)c2ccccc2)CC1", "note": "(stereo not given) [(3-{4-[Cyano-(2-methyl-pyridin-3-yl)-methyl]-piperazin-1-yl}-3-oxo-1-phenyl-propyl)-carbamic acid phenyl ester]", "IC50": 0.016},
      {"compound": "C#CC(c1cccnc1C)N1CCN(C(=O)CNC(c2ccccc2)c2ccccc2)CC1", "note": "(stereo not given) [2-(Benzhydryl-amino)-1-{4-[1-(2-methyl-pyridin-3-yl)-prop-2-ynyl]-piperazin-1-yl}-ethanone]", "IC50": 0.86},
      {"compound": "Cc1ncccc1C(C#N)N1CCN(C(=O)COC(c2ccccc2)c2ccccc2)CC1", "note": "(stereo not given) [[4-(2-Benzhydryloxy-acetyl)-piperazin-1-yl]-(2-methyl-pyridin-3-yl)-acetonitrile]", "IC50": 0.042},
      {"compound": "CC(=O)N(CC(=O)N1CCN(C(C#N)c2cccnc2C)CC1)C(c1ccccc1)c1ccccc1", "note": "(stereo not given) [N-Benzhydryl-N-(2-{4-[cyano-(2-methyl-pyridin-3-yl)-methyl]-piperazin-1-yl}-2-oxo-ethyl)-acetamide]", "IC50": 0.02},
      {"compound": "Cc1ncccc1C(C#N)N1CCN(C(=O)CC(NC(=O)N2CCCC2)c2ccccc2)CC1", "note": "(stereo not given) [Pyrrolidine-1-carboxylic acid (3-{4-[cyano-(2-methyl-pyridin-3-yl)-methyl]-piperazin-1-yl}-3-oxo-1-phenyl-propyl)-amide]", "IC50": 0.064},
      {"compound": "Cc1ncccc1C(C#N)N1CCN(C(=O)CN(C=O)C(c2ccccc2)c2ccccc2)CC1", "note": "(stereo not given) [N-Benzhydryl-N-(2-{4-[cyano-(2-methyl-pyridin-3-yl)-methyl]-piperazin-1-yl}-2-oxo-ethyl)-formamide]", "IC50": 0.03},
      {"compound": "Cc1ncccc1C(C#N)N1CCN(C(=O)CC(NC(N)=O)c2ccccc2)CC1", "note": "(stereo not given) [(3-{4-[Cyano-(2-methyl-pyridin-3-yl)-methyl]-piperazin-1-yl}-3-oxo-1-phenyl-propyl)-urea]", "IC50": 0.47},
      {"compound": "Cc1ncccc1C(C#N)N1CCN(C(=O)CC(NCc2cccnc2)c2ccccc2)CC1", "note": "(stereo not given) [(2-Methyl-pyridin-3-yl)-(4-{3-phenyl-3-[(pyridin-3-ylmethyl)-amino]-propionyl}-piperazin-1-yl)-acetonitrile]", "IC50": 0.075},
      {"compound": "Cc1ncccc1C(C#N)N1CCN(C(=O)CC(c2ccccc2)N(Cc2ccccc2)Cc2ccccc2)CC1", "note": "(stereo not given) [[4-(3-Dibenzylamino-3-phenyl-propionyl)-piperazin-1-yl]-(2-methyl-pyridin-3-yl)-acetonitrile]", "IC50": 0.041},
      {"compound": "Cc1ncccc1C(C#N)N1CCN(C(=O)[C@@H](C)NC(c2ccccc2)c2ccccc2)CC1", "note": "(stereo not given in full) [{4-[2-(Benzhydryl-amino)-propionyl]-piperazin-1-yl}-(2-methyl-pyridin-3-yl)-acetonitrile]", "IC50": 0.03},
      {"compound": "COC(=O)N(Cc1ccccc1)C(CC(=O)N1CCN(C(C#N)c2cccnc2C)CC1)c1ccccc1", "note": "(stereo not given) [Benzyl-(3-{4-[cyano-(2-methyl-pyridin-3-yl)-methyl]-piperazin-1-yl}-3-oxo-1-phenyl-propyl)-carbamic acid methyl ester]", "IC50": 0.068},
      {"compound": "Cc1ncccc1C(C#N)N1CCN(C(=O)CCNC(c2ccccc2)c2ccccc2)CC1", "note": "(stereo not given) [{4-[3-(Benzhydryl-amino)-propionyl]-piperazin-1-yl}-(2-methyl-pyridin-3-yl)-acetonitrile]", "IC50": 0.12},
      {"compound": "Cc1ncccc1C(C#N)N1CCN(C(=O)[C@H](C)NC(c2ccccc2)c2ccccc2)CC1", "note": "(stereo not given in full) [{4-[2-(Benzhydryl-amino)-propionyl]-piperazin-1-yl}-(2-methyl-pyridin-3-yl)-acetonitrile]", "IC50": 0.013},
      {"compound": "CC(=O)NC(CC(=O)N1CCN(C(C#N)c2cccnc2C)CC1)c1ccccc1", "note": "(stereo not given) [N-(3-{4-[Cyano-(2-methyl-pyridin-3-yl)-methyl]-piperazin-1-yl}-3-oxo-1-phenyl-propyl)-acetamide]", "IC50": 0.031},
      {"compound": "Cc1ncccc1C(C#N)N1CCN(C(=O)CNC(c2ccc(F)cc2)c2ccc(F)cc2)CC1", "note": "(stereo not given) [[4-(2-{[Bis-(4-fluoro-phenyl)-methyl]-amino}-acetyl)-piperazin-1-yl]-(2-methyl-pyridin-3-yl)-acetonitrile]", "IC50": 0.15},
      {"compound": "CCOC(=O)NC(CC(=O)N1CCN(C(C#N)c2cccnc2C)CC1)c1ccccc1", "note": "(stereo not given) [(3-{4-[Cyano-(2-methyl-pyridin-3-yl)-methyl]-piperazin-1-yl}-3-oxo-1-phenyl-propyl)-carbamic acid ethyl ester]", "IC50": 0.014},
      {"compound": "Cc1ncccc1C(C#N)N1CCN(C(=O)CNC(c2ccccc2)c2ccccc2)CC1", "note": "(stereo not given) [{4-[2-(Benzhydryl-amino)-acetyl]-piperazin-1-yl}-(2-methyl-pyridin-3-yl)-acetonitrile]", "IC50": 0.04},
      {"compound": "Cc1ncccc1C(C#N)N1CCN(C(=O)CC(NC(=O)c2cccnc2)c2ccccc2)CC1", "note": "(stereo not given) [N-(3-{4-[Cyano-(2-methyl-pyridin-3-yl)-methyl]-piperazin-1-yl}-3-oxo-1-phenyl-propyl)-nicotinamide]", "IC50": 0.0089},
      {"compound": "Cc1ncccc1C(C#N)N1CCN(C(=O)CC(c2ccccc2)N2CCCC2=O)CC1", "note": "(stereo not given) [(2-Methyl-pyridin-3-yl)-{4-[3-(2-oxo-pyrrolidin-1-yl)-3-phenyl-propionyl]-piperazin-1-yl}-acetonitrile]", "IC50": 0.03}
    ]}
  ]
}
